In patent US8779141B2, “Viral inhibitors” (Gilead Sciences, Inc., priority 2002, dated 2014) one finds EC50 and CC50 data, which are given here for 36 compounds.

Each structure is given as a SMILES string. In brackets after ≈: the same amount, converted by molar mass.

One data set relates to BVDV-1 (strain PE515). In words: Anti-BVDV assay, virus-induced cytopathic effect in MDBK cells (MTS). It is filed as cell-based, Bovine Viral Diarrhea Virus. The conditions noted are these: Bovine viral diarrhea virus isolates and strains; Table 9; reduction of virus induced cytopathic effect in MDBK cells by 50%; BVDV strain PE515; mean of 2-5 determinations; read-out: EC50. On the procedure: Madin-Darbey Bovine Kidney (MDBK) cells were maintained in Dulbecco's modified Eagle medium (DMEM) supplemented with BVDV-free 5% fetal calf serum (DMEME-FCS) at 37° C. in a humidified, 5% CO2 atmosphere. BVDV-1 (strain PE515) was used to assess the antiviral activity in MDBK cells. Vero cells were maintained in the same way as MDBK cells. Vero cells were infected with Coxsackie B3 virus (strain Nancy).
Ninety-six-well cell culture plates were seeded with MDBK cells in DMEM-FCS so that cells reached 24 hr later confluency. Then medium was removed and serial 5-fold dilutions of the test compounds were added in a total volume of 100 ul, after which the virus inoculum (100 ul) was added to each well. […] Uninfected cells and cells receiving virus without compound were included in each assay plate. After 5 days, medium was removed and 90 μl of DMEM-FCS and 10 ul of MTS/PMS solution (Promega) was added to each well. Following a 2 hr incubation period at 37° C. the optical density of the wells was read at 498 nm in a microplate reader.
(In general: Cytopathic effects are the visible damage that an infection or toxin causes in cultured cells.)

A short description of data set [1]: Cytostatic effect on exponentially growing MDBK cells (MTS). The conditions noted are these: bovine; Table 9; reduction of growth of exponentially growing MDBK cells by 50%; mean of 2-5 determinations. It is filed as cell-based, Bovine. On the procedure: Madin-Darbey Bovine Kidney (MDBK) cells were maintained in Dulbecco's modified Eagle medium (DMEM) supplemented with BVDV-free 5% fetal calf serum ([…]) at 37° C. in a humidified, 5% CO2 atmosphere. […] Vero cells were maintained in the same way as MDBK cells. […] The effect of the drugs on exponentially growing MDBK cells was assessed as follows. Cells were seeded at a density of 5000 cell/well in 96 well plates in MEM medium (Gibco) supplemented with 10% fetal calf serum, 2 mM L-glutamine (Life Technologies) and bicarbonate (Life Technologies). […] Cultures were then again further incubated for 3 days after which the effect on cell growth was quantified by means of the MTS method (Promega).

As a reminder, the EC50 is the concentration giving half of the maximal effect. Broadly, the CC50 is the concentration giving 50% cytotoxicity. A high value points to better tolerance by the cells. Consider `Fc1ccc(Cn2ccc3nc(-c4cc(F)ccc4F)nc-3c2)c(F)c1` [GPC-13, 2-(2,5-Difluorophenyl)-5-[(2,4-difluorophenyl)methyl]-5H-imidazo[4,5-c]pyridine], for which, in the data set with BVDV-1 (strain PE515), the EC50 came out at 0.067 µg/mL (≈ 0.188 µM). The CC50 at 3 days in data set [1] was greater than 100 µg/mL.
`Fc1cccc(F)c1-c1nc2ccn(Cc3ccccc3)cc-2n1` [GPJN-1, 5-Benzyl-2-(2,6-difluorophenyl)-5H-imidazo[4,5-c]pyridine]: the EC50 in the data set on BVDV-1 (strain PE515) was 0.24 µg/mL (≈ 0.747 µM). This compound registered a CC50 at 3 days in data set [1] greater than 83.3 µg/mL.
Taken in the same sequence, the figures for `Fc1cccc(F)c1Cn1ccc2nc(-c3ccccc3)nc-2c1` [GPJN-3, 5-[(2,6-Difluorophenyl)methyl]-2-phenyl-5H-imidazo[4,5-c]pyridine] were 0.06 µg/mL (≈ 0.187 µM) and 60 µg/mL (≈ 187 µM).
Taken in the same sequence, the figures for `c1ccc(Cn2ccc3nc(-c4ccccc4)nc-3c2)cc1` [GPJN-4, 5-Benzyl-2-phenyl-5H-imidazo[4,5-c]pyridine] were 0.04 µg/mL (≈ 0.14 µM) and 46 µg/mL (≈ 161 µM).
Taken in the same sequence, the figures for `Clc1ccccc1Cn1ccc2nc(-c3ccccc3)nc-2c1` [GPJN-7, 5-[(2-Chlorophenyl)methyl]-2-phenyl-5H-imidazo[4,5-c]pyridine] were 0.042 µg/mL (≈ 0.131 µM) and 22 µg/mL (≈ 68.8 µM).
Turning to `Clc1cccc(Cn2ccc3nc(-c4ccccc4)nc-3c2)c1` [GPJN-8, 5-[(3-Chlorophenyl)methyl]-2-phenyl-5H-imidazo[4,5-c]pyridine], the EC50 with BVDV-1 (strain PE515) worked out at 0.086 µg/mL (≈ 0.269 µM). In data set [1], this compound yielded a CC50 at 3 days of 51 µg/mL (≈ 159 µM).
Regarding `Cl.Clc1ccc(Cn2ccc3nc(-c4ccccc4)nc-3c2)cc1` [GPJN-9 xHCl, 5-[(4-Chlorophenyl)methyl]-2-phenyl-5H-imidazo[4,5-c]pyridine hydrochloride], in the data set with BVDV-1 (strain PE515), the concentration for a half-maximal effect (EC50) is 0.016 µg/mL.
The same measure, in the same setting: as for `Clc1ccc(Cn2ccc3nc(-c4ccccc4)nc-3c2)cc1` [GPJN-9, 5-[(4-Chlorophenyl)methyl]-2-phenyl-5H-imidazo[4,5-c]pyridine], the figure is 0.049 µg/mL (≈ 0.153 µM).
As to `COc1ccccc1Cn1ccc2nc(-c3ccccc3)nc-2c1` [GPJN-11, 5-[(2-Methoxyphenyl)methyl]-2-phenyl-5H-imidazo[4,5-c]pyridine], the EC50 in the data set with BVDV-1 (strain PE515) came to 0.032 µg/mL (≈ 0.101 µM). In addition, the midpoint of cytotoxicity in data set [1], the CC50 at 3 days, lay at 36 µg/mL (≈ 114 µM).
The matching figures for `COc1cccc(Cn2ccc3nc(-c4ccccc4)nc-3c2)c1` [GPJN-12, 5-[(3-Methoxyphenyl)methyl]-2-phenyl-5H-imidazo[4,5-c]pyridine]: 0.059 µg/mL (≈ 0.187 µM) and 56 µg/mL (≈ 178 µM).
On to `COc1ccc(Cn2ccc3nc(-c4ccccc4)nc-3c2)cc1` [GPJN-13, 5-[(4-Methoxyphenyl)methyl]-2-phenyl-5H-imidazo[4,5-c]pyridine], for which the EC50 in the data set on BVDV-1 (strain PE515) turned out to be 0.043 µg/mL (≈ 0.136 µM). Further, the CC50 at 3 days in data set [1] came out at 45 µg/mL (≈ 143 µM).
Taken in the same sequence, the figures for `c1ccc(CCCn2ccc3nc(-c4ccccc4)nc-3c2)cc1` [GPJN-14, 2-Phenyl-5-(3-phenylpropyl)-5H-imidazo[4,5-c]pyridine] were 0.07 µg/mL (≈ 0.223 µM) and 40 µg/mL (≈ 128 µM).
The matching figures for `Cc1ccc(Cn2ccc3nc(-c4ccccc4)nc-3c2)cc1` [GPJN-15, 5-[(4-Methylphenyl)methyl]-2-phenyl-5H-imidazo[4,5-c]pyridine]: 0.009 µg/mL (≈ 0.0301 µM) and 29 µg/mL (≈ 96.9 µM).
Taken in the same sequence, the figures for `Fc1ccccc1Cn1ccc2nc(-c3ccccc3)nc-2c1` [GPJN-17, 5-[(2-Fluorophenyl)methyl]-2-phenyl-5H-imidazo[4,5-c]pyridine] were 0.097 µg/mL (≈ 0.32 µM) and 50 µg/mL (≈ 165 µM).
Regarding `Fc1cccc(Cn2ccc3nc(-c4ccccc4)nc-3c2)c1` [GPJN-18, 5-[(3-Fluorophenyl)methyl]-2-phenyl-5H-imidazo[4,5-c]pyridine], the EC50 in the data set on BVDV-1 (strain PE515) was 0.019 µg/mL (≈ 0.0626 µM). Also, the CC50 at 3 days in data set [1] turned out to be 55 µg/mL (≈ 181 µM).
On to `Fc1ccc(Cn2ccc3nc(-c4ccccc4)nc-3c2)cc1` [GPJN-19, 5-[(4-Fluorophenyl)methyl]-2-phenyl-5H-imidazo[4,5-c]pyridine], for which, in the data set with BVDV-1 (strain PE515), the EC50 turned out to be 0.013 µg/mL (≈ 0.0429 µM). Besides, in data set [1], the CC50 at 3 days was 40 µg/mL (≈ 132 µM).
As for `Cc1ccccc1Cn1ccc2nc(-c3ccccc3)nc-2c1` [GPJN-20, 5-[(2-Methylphenyl)methyl]-2-phenyl-5H-imidazo[4,5-c]pyridine], the EC50 in the data set with BVDV-1 (strain PE515) came out at 0.165 µg/mL (≈ 0.551 µM). This compound also yielded a CC50 at 3 days in data set [1] of 28 µg/mL (≈ 93.5 µM).
As to `Cc1cccc(Cn2ccc3nc(-c4ccccc4)nc-3c2)c1` [GPJN-21, 5-[(3-Methylphenyl)methyl]-2-phenyl-5H-imidazo[4,5-c]pyridine], the EC50 with BVDV-1 (strain PE515) was determined as 0.022 µg/mL (≈ 0.0735 µM). In addition, in data set [1], it took 22 µg/mL (≈ 73.5 µM) to reach half-maximal cytotoxicity (CC50 at 3 days).
Taken in the same sequence, the figures for `Brc1ccc(Cn2ccc3nc(-c4ccccc4)nc-3c2)cc1` [GPJN-22, 5-[(4-Bromophenyl)methyl]-2-phenyl-5H-imidazo[4,5-c]pyridine] were 0.029 µg/mL (≈ 0.0796 µM) and 13 µg/mL (≈ 35.7 µM).
On to `N#Cc1ccc(Cn2ccc3nc(-c4ccccc4)nc-3c2)cc1` [GPJN-23, 4-[(2-Phenyl-5H-imidazo[4,5-c]pyridin-5-yl)methyl]-benzonitrile], for which the half-maximal effective concentration (EC50) in the data set on BVDV-1 (strain PE515) was found to be 0.014 µg/mL (≈ 0.0451 µM). In data set [1], this compound gave a CC50 at 3 days of 46 µg/mL (≈ 148 µM).
The matching figures for `FC(F)(F)c1ccc(Cn2ccc3nc(-c4ccccc4)nc-3c2)cc1` [GPJN-24, 2-Phenyl-5-[[4-(trifluoromethyl)phenyl]methyl]-5H-imidazo[4,5-c]pyridine]: 0.04 µg/mL (≈ 0.113 µM) and 21 µg/mL (≈ 59.4 µM).
The matching figures for `Clc1ccc(Cn2ccc3nc(-c4ccccc4)nc-3c2)s1` [GPJN-25, 5-[(5-Chloro-2-thienyl)methyl]-2-phenyl-5H-imidazo[4,5-c]pyridine]: 0.009 µg/mL (≈ 0.0276 µM) and 36 µg/mL (≈ 110 µM).
For the compound `c1ccc(-c2nc3ccn(Cc4ccc5ccccc5c4)cc-3n2)cc1` [GPJN-26, 5-(2-Naphthalenylmethyl)-2-phenyl-5H-imidazo[4,5-c]pyridine], the EC50 in the data set on BVDV-1 (strain PE515) turned out to be 0.041 µg/mL (≈ 0.122 µM). Further, the CC50 at 3 days in data set [1] is greater than 100 µg/mL.
Taken in the same sequence, the figures for `c1ccc(CCCCn2ccc3nc(-c4ccccc4)nc-3c2)cc1` [GPJN-27, 2-Phenyl-5-(4-phenylbutyl)-5H-imidazo[4,5-c]pyridine] were 0.945 µg/mL (≈ 2.89 µM) and greater than 46 µg/mL.
The matching figures for `CC(C)=CCn1ccc2nc(-c3ccccc3)nc-2c1` [GPJN-28, 5-(3-Methyl-2-butenyl)-2-phenyl-5H-imidazo[4,5-c]pyridine]: 0.325 µg/mL (≈ 1.23 µM) and greater than 75 µg/mL.
Regarding `c1ccc(-c2nc3ccn(Cc4ccncc4)cc-3n2)cc1` [GPJN-31, 2-Phenyl-5-(4-pyridinylmethyl)-5H-imidazo[4,5-c]pyridine], the EC50 in the data set with BVDV-1 (strain PE515) came to 0.455 µg/mL (≈ 1.59 µM). Moreover, the CC50 at 3 days in data set [1] is greater than 100 µg/mL.
Taken in the same sequence, the figures for `CC(c1ccccc1)n1ccc2nc(-c3ccccc3)nc-2c1` (stereo not shown) [GPJN-33, 2-Phenyl-5-(1-phenylethyl)-5H-imidazo[4,5-c]pyridine] were 0.2 µg/mL (≈ 0.668 µM) and 70 µg/mL (≈ 234 µM).
The matching figures for `c1ccc(-c2nc3ccn(Cc4ccccn4)cc-3n2)cc1` [GPJN-34, 2-Phenyl-5-(2-pyridinylmethyl)-5H-imidazo[4,5-c]pyridine]: 0.865 µg/mL (≈ 3.02 µM) and greater than 100 µg/mL.
`c1ccc(-c2nc3ccn(Cc4cccnc4)cc-3n2)cc1` [GPJN-35, 2-Phenyl-5-(3-pyridinylmethyl)-5H-imidazo[4,5-c]pyridine]: in the data set on BVDV-1 (strain PE515), the EC50 was found to be 0.365 µg/mL (≈ 1.27 µM). Moreover, the CC50 at 3 days in data set [1] is greater than 100 µg/mL.
As for `c1ccc(-c2nc3ccn(CC4CCCCC4)cc-3n2)cc1` [GPJN-37, 5-(Cyclohexylmethyl)-2-phenyl-5H-imidazo[4,5-c]pyridine], the EC50 in the data set on BVDV-1 (strain PE515) worked out at 0.161 µg/mL (≈ 0.553 µM). This compound returned a CC50 at 3 days in data set [1] of 22 µg/mL (≈ 75.5 µM).
`CC(C)CCn1ccc2nc(-c3ccccc3)nc-2c1` [GPJN-38, 5-(3-Methylbutyl)-2-phenyl-5H-imidazo[4,5-c]pyridine]: the EC50 with BVDV-1 (strain PE515) came to 0.235 µg/mL (≈ 0.886 µM). In addition, half-maximal cytotoxicity in data set [1] (CC50 at 3 days) was put at 50 µg/mL (≈ 188 µM).
Regarding `Fc1ccc(Cn2ccc3nc(-c4c(F)cccc4F)nc-3c2)cc1` [GPJN-39, 2-(2,6-Difluorophenyl)-5-[(4-fluorophenyl)methyl]-5H-imidazo[4,5-c]pyridine], the EC50 in the data set on BVDV-1 (strain PE515) amounted to 0.245 µg/mL (≈ 0.722 µM). The CC50 at 3 days in data set [1] is greater than 100 µg/mL.
Taken in the same sequence, the figures for `Fc1cc(F)c(Cn2ccc3nc(-c4c(F)cccc4F)nc-3c2)c(F)c1` [GPJN-41, 2-(2,6-Difluorophenyl)-5-[(2,4,6-trifluorophenyl)methyl]-5H-imidazo[4,5-c]pyridine] were 0.58 µg/mL (≈ 1.55 µM) and greater than 100 µg/mL.
Taken in the same sequence, the figures for `CCc1nc2ccn(Cc3ccc(Br)cc3)cc-2n1` [GPJN-48, 5-[(4-Bromophenyl)methyl]-2-ethyl-5H-imidazo[4,5-c]pyridine] were 0.351 µg/mL (≈ 1.11 µM) and greater than 100 µg/mL.
Taken in the same sequence, the figures for `Brc1ccc(Cn2ccc3nc(-c4ccncc4)nc-3c2)cc1` [GPJN-49, 5-[(4-Bromophenyl)methyl]-2-(4-pyridinyl)-5H-imidazo[4,5-c]pyridine] were 0.18 µg/mL (≈ 0.493 µM) and 62 µg/mL (≈ 170 µM).
`Brc1ccc(Cn2ccc3nc(-c4cccs4)nc-3c2)cc1` [GPJN-53, 5-[(4-Bromophenyl)methyl]-2-(2-thienyl)-5H-imidazo[4,5-c]pyridine]: the EC50 in the data set with BVDV-1 (strain PE515) came out at 0.033 µg/mL (≈ 0.0891 µM). In addition, in data set [1], the midpoint of cytotoxicity, the CC50 at 3 days, lay at 66 µg/mL (≈ 178 µM).
